Holding throughout (type): biochemical
Assay [1] has as its target T1, HIV-1 protease resistant mutant K20R (Human immunodeficiency virus type 1 group M subtype B, UniProt P04585, K508R).
T1 construct: The active HIVPr is a homodimer of 99-residue monomers; made in house
The following applies: K20R mutant; with standard error.

For assay [2], the system named is HIV-1 protease resistant mutant K20R. The following applies: Ki,mut K20R / Ki wild-type.
Assay [3] concerns HIV-1 protease resistant mutant I15V. The following applies: Ki,mut I15V / Ki wild-type.
The target of assay [4] is T2, HIV-1 protease resistant mutant I15V (Human immunodeficiency virus type 1 group M subtype B, UniProt P04585, I503V).
T2 construct: The active HIVPr is a homodimer of 99-residue monomers; made in house
The following applies: I15V mutant; with standard error.

Assay [5] concerns the target T3, HIV-1 protease resistant mutant L90M (Human immunodeficiency virus type 1 group M subtype B, UniProt P04585, L578M).
T3 construct: The active HIVPr is a homodimer of 99-residue monomers; made in house
The settings on record: L90M mutant; with standard error.

For assay [6], the system named is HIV-1 protease resistant mutant L90M. The following applies: Ki,mut L90M / Ki wild-type.
Another assay addresses T4, wild type HIV-1 protease (Human immunodeficiency virus type 1 group M subtype B, UniProt P04585).
T4 construct: The active HIVPr is a homodimer of 99-residue monomers; made in house; host or cells: E. coli
The assay can be described thus: Ki determination, wild-type HIV-1 protease. The following applies: W.T. HIV-1 protease; with standard error. An excerpt:
(§1) The wild-type HIV-1 Pr was produced as recombinant enzyme in E. coli as described by Ido et al. ( 1991) J. Biol. Chem. 266:24359-24366.

The test system of assay [7] is HIV-1 protease resistant mutant G48V. The settings on record: Ki,mut G48V / Ki wild-type.
Assay [8] concerns the target T5, HIV-1 protease resistant mutant G48V (Human immunodeficiency virus type 1 group M subtype B, UniProt P04585, G536V).
T5 construct: The active HIVPr is a homodimer of 99-residue monomers; made in house
The following applies: G48V mutant; with standard error.

The subject of assay [9] is HIV-1 protease resistant mutant M46I. The settings on record: Ki,mut M46I / Ki wild-type.
In assay [10] the target is T6, HIV-1 protease resistant mutant M46I (Human immunodeficiency virus type 1 group M subtype B, UniProt P04585, M534I).
T6 construct: The active HIVPr is a homodimer of 99-residue monomers; made in house
The settings on record: M46I mutant; with standard error.

For assay [11], the system named is HIV-1 protease resistant mutant L10I. The following applies: Ki,mut L10I / Ki wild-type.
Assay [12] deals with T7, HIV-1 protease resistant mutant L10I (Human immunodeficiency virus type 1 group M subtype B, UniProt P04585, L498I).
T7 construct: The active HIVPr is a homodimer of 99-residue monomers; made in house
The settings on record: L10I mutant; with standard error.

Assay [13] concerns the target T8, HIV-1 protease resistant mutant I93L (Human immunodeficiency virus type 1 group M subtype B, UniProt P04585, I581L).
T8 construct: The active HIVPr is a homodimer of 99-residue monomers; made in house
The assay can be described thus: Ki determination, HIV-1 protease mutant I93L.
Description: as §1

For assay [14], the system named is HIV-1 protease resistant mutant I64V. The settings on record: Ki,mut I64V / Ki wild-type.
For assay [15], the target named is T9, HIV-1 protease resistant mutant I64V (Human immunodeficiency virus type 1 group M subtype B, UniProt P04585, I552V).
T9 construct: The active HIVPr is a homodimer of 99-residue monomers; made in house
The following applies: I64V mutant; with standard error.

Assay [16] deals with HIV-1 protease resistant mutant I84V. The following applies: Ki,mut I84V / Ki wild-type.
The target of assay [17] is T10, HIV-1 protease resistant mutant I84V (Human immunodeficiency virus type 1 group M subtype B, UniProt P04585, I572V).
T10 construct: The active HIVPr is a homodimer of 99-residue monomers; made in house
The following applies: I84V mutant; with standard error.

Assay [18] deals with HIV-1 protease resistant mutant V82A. The settings on record: Ki,mut V82A / Ki wild-type.
Assay [19] addresses T11, HIV-1 protease resistant mutant V82A (Human immunodeficiency virus type 1 group M subtype B, UniProt P04585, V570A).
T11 construct: The active HIVPr is a homodimer of 99-residue monomers; made in house
The following applies: V82A mutant; with standard error.

Values joined by “and” are separate entries in the source; they are usually repeats but may differ in a detail not shown here. Identical values can stand only once.

Usually Ki stands for a dissociation constant, usually derived from enzyme kinetics or from competition with a known ligand. Lower therefore signals tighter binding. `CC(C)CN(CC(O)C(Cc1ccccc1)NC(=O)C(Cc1ccccc1)CC(O)C(Cc1ccccc1)NC(=O)OC1CCCO1)S(=O)(=O)c1cccc(O)c1` [UIC-98-056, (1′S,2R,2′R,3S,5′S)-3-[N-[2′-Benzyl-5′-[N-(2-tetrahydrofuranyloxycarbonyl]amino-4′-hydroxy-6′-phenyl-1′-oxo]hexyl]amino-2-hydroxy-1-[N-isobutylamino-N′[3-hydroxybenzene)sulfonamido]]-4-[phenylbutane]: the Ki in assay [1] came to 2.9 ± 0.74 nM; in assay [4] it was 1.22 ± 0.14 nM; in [5], 2.1 ± 0.5 nM; on wild type HIV-1 protease, 6.2 ± 0.8 nM; in [8] it was 8.7 ± 1.4 nM; in assay [10], 3.16 ± 0.81 nM. In addition, the Ki in assay [12] was determined as 1.03 ± 0.25 nM; in assay [13] (I93L mutant, with standard error), 3.05 ± 0.64 nM; in [15], 6.24 ± 1.52 nM; in [17] it was 55.3 ± 0.46 nM; in assay [19], 6.23 ± 1.2 nM. The “fold of Ki increase from that of the wild-type” value in assay [2] worked out at 0.5 fold; in assay [3] it was 0.2 fold; in assay [6], 0.3 fold; in [7] it was 1.4 fold; in [9], 0.5 fold; in assay [11], 0.2 fold. Moreover, the “fold of Ki increase from that of the wild-type” value was 0.5 fold in assay [13] (Ki,mut I93L / Ki wild-type); 1.0 fold in [14]; 9 fold and 8.9 fold in assay [16]; 1.0 fold in assay [18].

The record behind these values is patent publication US6969731B1, “Protease inhibitors that overcome drug resistance” (The University of Illinois, Board of Trustees, priority 1999, dated 2005).
